Common to all, as to assay type: cell-based
The subject of assay [1] is MV4-11 cells. Kind of assay: MV4-11 cellular proliferative assay, Assay Format B (CTG 2.0, 168 h). Conditions: Homo sapiens, Assay format B, 168 h, read-out: IC50 (MV4-11 cellular proliferative assay). On the procedure: MV4-11 cells at a confluency of ~50-80% was used for cell growth assay. 600 cells/well in a 384-well opaque cell culture plate (6007680; Perkin Elmer) were seeded in 40 μL of complete medium (IMDM+10% FBS+1× Penicillin-Streptomycin). Cells were incubated overnight at 37° C., 5% CO2. 10 mM DMSO stocks were prepared, cells were treated with 10 concentrations of test compounds starting from 1 uM or 100 nM, 3-fold dilution in 10 uL (5× concentration) of complete medium. Final DMSO concentration was 0.3%. Culture plates were centrifuged at 40×g, 30s. Cells were incubated with compounds for 168 h (7 days). After 7 days, 20 uL CTG 2.0 reagent (G9242; Promega) was added per well and luminescence reading was taken in Envision Xcite 2105 multimode plate reader. Data was analyzed in GraphPad Prism 10.0 and data was shown as % viability with respect to DMSO control and dose-response curves were generated using four parameter logistic regression. Assay quality was determined by z-factor calculation using positive and negative controls.

For assay [2], the target named is T1, MLLT1 (Homo sapiens, UniProt Q03111).
T1 sequence (Q03111 1-559): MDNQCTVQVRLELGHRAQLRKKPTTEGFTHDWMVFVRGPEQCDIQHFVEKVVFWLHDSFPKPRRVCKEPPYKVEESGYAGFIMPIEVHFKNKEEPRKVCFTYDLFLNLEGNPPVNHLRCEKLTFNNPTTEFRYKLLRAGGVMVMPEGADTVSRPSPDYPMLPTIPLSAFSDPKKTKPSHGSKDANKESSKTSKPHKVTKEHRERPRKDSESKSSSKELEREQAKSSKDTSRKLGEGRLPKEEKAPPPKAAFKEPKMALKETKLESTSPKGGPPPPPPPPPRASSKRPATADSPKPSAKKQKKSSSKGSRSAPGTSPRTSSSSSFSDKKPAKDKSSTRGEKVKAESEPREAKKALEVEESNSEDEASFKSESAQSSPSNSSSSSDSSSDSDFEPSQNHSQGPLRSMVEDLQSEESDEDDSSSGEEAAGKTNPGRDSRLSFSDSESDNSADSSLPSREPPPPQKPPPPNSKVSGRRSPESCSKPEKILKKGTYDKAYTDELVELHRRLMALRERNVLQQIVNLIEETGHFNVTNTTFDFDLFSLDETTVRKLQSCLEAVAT
Kind of assay: MLLT1 degradation assay in MV4-11 cells (JESS, 24 h). More on the design: endogenous in cells; host or cells: MV4-11 (ATCC CRL-9591). Conditions: vs DMSO control. In outline:
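MV4-11 cells treated at 1000, 100 and 10 nM (0.1% DMSO) for 24 h at 37° C; lysates (4 ug protein) run on JESS capillary immunoassay with MLLT1 and GAPDH antibodies. Peak areas give % degradation versus DMSO, binned A (≥75%) to D (<25%).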

Assay [3] relates to MV4-11 cells. As to the kind of experiment: MV4-11 cellular proliferative assay, Assay Format A (CellTiter-Glo, 120 h). Conditions: Homo sapiens, Assay format A, 120 h, read-out: IC50 (MV4-11 cellular proliferative assay). On the procedure: An MV4-11 proliferation assay was used to test the ability of compounds to reduce cell viability. MV4-11 cells (ATCC #CRL9591) were grown in IMDM medium (11510596, Gibco) supplemented with 10% fetal bovine serum (F7524, Gibco) and 1% Penicillin/Streptomycin (15140-122, Gibco) at 37° C. with 5% CO2. Cells were seeded in 384-well Elplasia plates (4447, Corning) at a density of 50 cells/well and treated with vehicle (DMSO) or compounds (10 serial semi-log dilutions, 30 μM as top concentration).
After 120 hours of treatment, cells were incubated for 10 min at RT with the CellTiter-Glo (CTG) reagent (G7571, Promega). Measurement of the luminescence signal was performed on a microplate reader (Ensight, PerkinElmer). CTG reagent measures the amount of ATP, which is directly proportional to the number of cells, to determine the number of viable cells in culture.
The data were analysed as follows:
[formula] • where x is the measured raw signal value of a well, (cr) is the median of the measured signal values for the Central Reference (DMSO) wells on a plate, (sr) is the median of the measured signal values for the Scale Reference (reference compound) wells on a plate.
[formula] • where the experimental set-up assumes the Hill parameters in certain ranges: S0~Central Reference (CR) from normalization (=Bottom), Sinf~Scale Reference (SR) from normalization (=Top), nHill ~1, AC50~within the measured concentration range.

As to `Cc1nn(CCCCCCCC#Cc2cccc3c2CN([C@H]2CCC(=O)NC2=O)C3=O)c2cc(C(=O)Nc3cc4[nH]c([C@H]5CCCN5C)c(Cl)c4cn3)ccc12` (relative stereo) [Example 100, N-(3-chloro-2-((R)-1-methylpyrrolidin-2-yl)-1H-pyrrolo[3,2-c]pyridin-6-yl)-1-(9-(2-((rel-S)-2,6-dioxopiperidin-3-yl)-1-oxoisoindolin-4-yl)non-8-yn-1-yl)-3-methyl-1H-indazole-6-carboxamide], the IC50 in assay [1] was less than 0.1 µM.

For `Cc1nn(CCCCCC#Cc2cccc3c2C(=O)N(C2CCC(=O)NC2=O)C3=O)c2cc(C(=O)Nc3cc4[nH]c([C@H]5CCCN5C)cc4cn3)ccc12` (stereo partly drawn) [Example 33, 1-(7-(2-(2,6-dioxopiperidin-3-yl)-1,3-dioxoisoindolin-4-yl)hept-6-yn-1-yl)-3-methyl-N-(2-((R)-1-methylpyrrolidin-2-yl)-1H-pyrrolo[3,2-c]pyridin-6-yl)-1H-indazole-6-carboxamide], in assay [2], the “MLLT1% Degradation @ 0.01 μM” value is “B (Category B: 50%≤B<75% degradation)”, the “MLLT1% Degradation @ 0.1 μM” value was “B (Category B: 50%≤B<75% degradation)” and the “MLLT1% Degradation @ 1 μM” value was “A (Category A: A≥75% degradation)”. The concentration for half-maximal inhibition (IC50) in assay [3] was less than 0.1 µM.

Consider `CN1CCC[C@@H]1c1cc2cnc(NC(=O)c3ccc4c(cnn4CCCCCCCCNc4cccc5c4C(=O)N(C4CCC(=O)NC4=O)C5=O)c3)cc2[nH]1` (stereo partly drawn) [Example 36, 1-(8-((2-(2,6-dioxopiperidin-3-yl)-1,3-dioxoisoindolin-4-yl)amino)octyl)-N-(2-((R)-1-methylpyrrolidin-2-yl)-1H-pyrrolo[3,2-c]pyridin-6-yl)-1H-indazole-5-carboxamide], for which, in assay [2], the “MLLT1% Degradation @ 0.01 μM” value is listed as “A (Category A: A≥75% degradation)”, the “MLLT1% Degradation @ 0.1 μM” value was “A (Category A: A≥75% degradation)” and the “MLLT1% Degradation @ 1 μM” value is “A (Category A: A≥75% degradation)”. Moreover, in assay [3], the IC50 was less than 0.1 µM.

Take `CN1CCC[C@@H]1c1cc2cnc(NC(=O)c3ccc4c(cnn4CCCCCCCC#Cc4cccc5c4CN(C4CCC(=O)NC4=O)C5=O)c3)cc2[nH]1` (stereo partly drawn) [Example 38, 1-(9-(2-(2,6-dioxopiperidin-3-yl)-1-oxoisoindolin-4-yl)non-8-yn-1-yl)-N-(2-((R)-1-methylpyrrolidin-2-yl)-1H-pyrrolo[3,2-c]pyridin-6-yl)-1H-indazole-5-carboxamide]: in assay [2], the “MLLT1% Degradation @ 0.01 μM” value is listed as “B (Category B: 50%≤B<75% degradation)”, the “MLLT1% Degradation @ 0.1 μM” value is reported as “A (Category A: A≥75% degradation)” and the “MLLT1% Degradation @ 1 μM” value is on record as “B (Category B: 50%≤B<75% degradation)”. Besides, the IC50 in assay [3] is less than 0.1 µM.

Consider `Cc1nn(CCCCCCCC#Cc2cccc(C(=O)N[C@H]3CCC(=O)NC3=O)n2)c2cc(C(=O)Nc3cc4[nH]c([C@H]5CCCN5C)cc4cn3)ccc12` [Example 42, 1-(9-(6-(((S)-2,6-dioxopiperidin-3-yl)carbamoyl)pyridin-2-yl)non-8-yn-1-yl)-3-methyl-N-(2-((R)-1-methylpyrrolidin-2-yl)-1H-pyrrolo[3,2-c]pyridin-6-yl)-1H-indazole-6-carboxamide], for which, in assay [2], the “MLLT1% Degradation @ 0.01 μM” value is listed as “B (Category B: 50%≤B<75% degradation)”, the “MLLT1% Degradation @ 0.1 μM” value is “A (Category A: A≥75% degradation)” and the “MLLT1% Degradation @ 1 μM” value is given as “A (Category A: A≥75% degradation)”. Moreover, the IC50 in assay [3] was less than 0.1 µM.

As for `[2H]C([2H])([2H])N1CCC[C@@H]1c1cc2cnc(NC(=O)c3ccc4c(C)nn(CCCCCCCC#Cc5cccc6c5CN(C5CCC(=O)NC5=O)C6=O)c4c3)cc2[nH]1` (stereo partly drawn) [Example 44, 1-(9-(2-(2,6-dioxopiperidin-3-yl)-1-oxoisoindolin-4-yl)non-8-yn-1-yl)-3-methyl-N-(2-((R)-1-(methyl-d3)pyrrolidin-2-yl)-1H-pyrrolo[3,2-c]pyridin-6-yl)-1H-indazole-6-carboxamide], in assay [2], the “MLLT1% Degradation @ 0.01 μM” value is “B (Category B: 50%≤B<75% degradation)”, the “MLLT1% Degradation @ 0.1 μM” value was “A (Category A: A≥75% degradation)” and the “MLLT1% Degradation @ 1 μM” value is “A (Category A: A≥75% degradation)”. In addition, in assay [3], the IC50 was less than 0.1 µM.

Regarding `Cc1nn(CCCCCCC#Cc2cccc3c2CN(C2CCC(=O)NC2=O)C3=O)c2cc(C(=O)Nc3cc4[nH]c([C@H]5CCCN5C)cc4cn3)ccc12` (stereo partly drawn) [Example 45, 1-(8-(2-(2,6-dioxopiperidin-3-yl)-1-oxoisoindolin-4-yl)oct-7-yn-1-yl)-3-methyl-N-(2-((R)-1-methylpyrrolidin-2-yl)-1H-pyrrolo[3,2-c]pyridin-6-yl)-1H-indazole-6-carboxamide], in assay [2], the “MLLT1% Degradation @ 0.01 μM” value was “A (Category A: A≥75% degradation)”, the “MLLT1% Degradation @ 0.1 μM” value is on record as “A (Category A: A≥75% degradation)” and the “MLLT1% Degradation @ 1 μM” value was “A (Category A: A≥75% degradation)”. For the same molecule, the IC50 in assay [3] was less than 0.1 µM.

Turning to `Cc1nn(CCCCC#Cc2cccc3c2CN(C2CCC(=O)NC2=O)C3=O)c2cc(C(=O)Nc3cc4[nH]c([C@H]5CCCN5C)cc4cn3)ccc12` (stereo partly drawn) [Example 46, 1-(6-(2-(2,6-dioxopiperidin-3-yl)-1-oxoisoindolin-4-yl)hex-5-yn-1-yl)-3-methyl-N-(2-((R)-1-methylpyrrolidin-2-yl)-1H-pyrrolo[3,2-c]pyridin-6-yl)-1H-indazole-6-carboxamide], in assay [2], the “MLLT1% Degradation @ 0.01 μM” value is given as “A (Category A: A≥75% degradation)”, the “MLLT1% Degradation @ 0.1 μM” value is “A (Category A: A≥75% degradation)” and the “MLLT1% Degradation @ 1 μM” value is reported as “B (Category B: 50%≤B<75% degradation)”. For the same molecule, in assay [3], the IC50 was less than 0.1 µM.

Take `Cc1nn(CCCCCN2CCN(c3cccc4c3C(=O)N(C3CCC(=O)NC3=O)C4=O)CC2)c2cc(C(=O)Nc3cc4[nH]c([C@H]5CCCN5C)cc4cn3)ccc12` (stereo partly drawn) [Example 47, 1-(5-(4-(2-(2,6-dioxopiperidin-3-yl)-1,3-dioxoisoindolin-4-yl)piperazin-1-yl)pentyl)-3-methyl-N-(2-((R)-1-methylpyrrolidin-2-yl)-1H-pyrrolo[3,2-c]pyridin-6-yl)-1H-indazole-6-carboxamide]: in assay [2], the “MLLT1% Degradation @ 0.01 μM” value is given as “D (Category D: D<25% degradation)”, the “MLLT1% Degradation @ 0.1 μM” value is “D (Category D: D<25% degradation)” and the “MLLT1% Degradation @ 1 μM” value is “B (Category B: 50%≤B<75% degradation)”. Also, the IC50 in assay [3] was less than 0.1 µM.

Take `CCN1CCC[C@@H]1c1cc2cnc(NC(=O)c3ccc4c(C)nn(CCCCCCCC#Cc5cccc6c5CN(C5CCC(=O)NC5=O)C6=O)c4c3)cc2[nH]1` (stereo partly drawn) [Example 48, 1-(9-(2-(2,6-dioxopiperidin-3-yl)-1-oxoisoindolin-4-yl)non-8-yn-1-yl)-N-(2-((R)-1-ethylpyrrolidin-2-yl)-1H-pyrrolo[3,2-c]pyridin-6-yl)-3-methyl-1H-indazole-6-carboxamide]: in assay [2], the “MLLT1% Degradation @ 0.01 μM” value is recorded as “C (Category C: 25%≤C<50% degradation)”, the “MLLT1% Degradation @ 0.1 μM” value is on record as “B (Category B: 50%≤B<75% degradation)” and the “MLLT1% Degradation @ 1 μM” value is recorded as “A (Category A: A≥75% degradation)”. Also, the IC50 in assay [3] is less than 0.1 µM.

(Values after patent publication US20260199484A1, “PROTAC DEGRADERS OF MLLT1 AND/OR MLLT3” (DARK BLUE THERAPEUTICS LTD, priority 2024, published 2026).)
